Data: patent US6936584B1, “Mixed amylin activity compounds” (Amylin Pharmaceuticals, Inc., priority 1998, dated 2005)
Entries after “also recorded” stand apart in the source; their conditions may differ. Square brackets hold non-standard residues; d marks the D form. Ends that are not written are not given here. * marks the point of attachment. 125I = iodine-125 radiolabel, [125I]*; Aib = CC(C)(N)C(=O)O; For = O=C*

Key:
calcitonin receptors [1] = biological target: T1, calcitonin receptors (Homo sapiens, UniProt P30988); assay: Adenyl cyclase stimulation, cyclic AMP accumulation in MCF7-7 cells; type: cell-based
T1 sequence (P30988 25-474): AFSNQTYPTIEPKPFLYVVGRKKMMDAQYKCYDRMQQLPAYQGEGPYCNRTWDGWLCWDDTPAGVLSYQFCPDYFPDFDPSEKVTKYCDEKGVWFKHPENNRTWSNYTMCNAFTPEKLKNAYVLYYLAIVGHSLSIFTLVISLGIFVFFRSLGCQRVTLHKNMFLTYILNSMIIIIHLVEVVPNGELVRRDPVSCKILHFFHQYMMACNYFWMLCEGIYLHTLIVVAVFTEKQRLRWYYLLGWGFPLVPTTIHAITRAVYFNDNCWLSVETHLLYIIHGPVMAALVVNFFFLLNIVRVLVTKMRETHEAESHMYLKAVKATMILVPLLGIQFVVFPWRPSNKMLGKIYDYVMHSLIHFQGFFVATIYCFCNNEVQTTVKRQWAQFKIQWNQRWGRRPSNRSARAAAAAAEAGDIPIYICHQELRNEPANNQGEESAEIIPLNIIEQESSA

[2] = Effect on plasma glucose, lactate and calcium levels in anesthetized rats; type: in vivo, rat; settings: 100 μg subcutaneous
[3] = system: effects of rat amylin on plasma levels of glucose, lactate and calcium; assay: Effect on plasma glucose, lactate, calcium and mean arterial pressure in the presence of amylin, anesthetized rats; type: in vivo
isolated soleus muscle = settings: insulin 7.1 nM
gastric emptying in rats = assay: Phenol red gastric emptying assay in conscious rats; settings: for inhibition of gastric emptying: conscious rat model, adrenomedullin at highest doses (100 μg); for ED50 inhibiting gastric emptying (FIG. 7): conscious rats; for dose at which suppression of gastric emptying was complete / ED50 for inhibition of gastric emptying: subcutaneous; for ED50 for inhibition of gastric emptying: normal (Harlan Sprague Dawley) rats, ±0.19 log units
calcitonin receptors [4] = biological target: T1, calcitonin receptors; assay: Binding to membranes from T47D cells (calcitonin receptors), displacement of [125I]salmon calcitonin; parameters: Membranes were prepared from confluent cultures of T47D cells; host or cells: T47D human breast carcinoma cells; settings: for affinity for calcitonin receptors compared with amylin receptors: calcitonin (T47D) versus amylin (nucleus accumbens) receptors; for IC50: T47D membranes, mean ± SEM (n), read-out: Receptor IC50 in nM [mean ± SEM (n)] Calcitonin
CGRP receptors = biological target: T2, CGRP receptors (Homo sapiens, UniProt O60894+Q16602); assay: Binding to membranes from SK-N-MC cells (CGRP receptors), displacement of [125I]human-CGRP; settings: read-out: Receptor IC50 in nM [mean ± SEM (n)] CGRP
T2 construct: SK-N-MC cells (ATCC No. HTB-10) were homogenized in 50 mM Hepes buffer; host or cells: SK-N-MC human neuroblastoma cells
T2 sequence (Q16602 23-461): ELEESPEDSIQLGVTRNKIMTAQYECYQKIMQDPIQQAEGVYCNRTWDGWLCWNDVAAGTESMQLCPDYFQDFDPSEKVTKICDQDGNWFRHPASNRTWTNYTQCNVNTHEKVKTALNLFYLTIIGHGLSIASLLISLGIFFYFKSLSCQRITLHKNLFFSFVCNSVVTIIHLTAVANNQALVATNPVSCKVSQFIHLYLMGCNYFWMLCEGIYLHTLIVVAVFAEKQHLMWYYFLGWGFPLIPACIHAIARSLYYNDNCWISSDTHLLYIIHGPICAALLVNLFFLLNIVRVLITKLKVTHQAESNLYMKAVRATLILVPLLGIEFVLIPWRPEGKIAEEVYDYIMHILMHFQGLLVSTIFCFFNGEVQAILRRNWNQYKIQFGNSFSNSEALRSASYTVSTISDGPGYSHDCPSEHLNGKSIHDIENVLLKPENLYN
T2 sequence (O60894 27-148 partner): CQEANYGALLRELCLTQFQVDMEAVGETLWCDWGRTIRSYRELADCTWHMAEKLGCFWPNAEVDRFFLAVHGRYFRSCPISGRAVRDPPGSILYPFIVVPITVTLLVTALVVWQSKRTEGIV

amylin receptors = biological target: T3, amylin receptors (Rattus norvegicus, UniProt P32214); assay: Binding to rat nucleus accumbens membranes (amylin receptors), displacement of 125I-BH-rat amylin; settings: read-out: Receptor IC50 in nM [mean ± SEM (n)] Amylin
T3 sequence (P32214 25-516): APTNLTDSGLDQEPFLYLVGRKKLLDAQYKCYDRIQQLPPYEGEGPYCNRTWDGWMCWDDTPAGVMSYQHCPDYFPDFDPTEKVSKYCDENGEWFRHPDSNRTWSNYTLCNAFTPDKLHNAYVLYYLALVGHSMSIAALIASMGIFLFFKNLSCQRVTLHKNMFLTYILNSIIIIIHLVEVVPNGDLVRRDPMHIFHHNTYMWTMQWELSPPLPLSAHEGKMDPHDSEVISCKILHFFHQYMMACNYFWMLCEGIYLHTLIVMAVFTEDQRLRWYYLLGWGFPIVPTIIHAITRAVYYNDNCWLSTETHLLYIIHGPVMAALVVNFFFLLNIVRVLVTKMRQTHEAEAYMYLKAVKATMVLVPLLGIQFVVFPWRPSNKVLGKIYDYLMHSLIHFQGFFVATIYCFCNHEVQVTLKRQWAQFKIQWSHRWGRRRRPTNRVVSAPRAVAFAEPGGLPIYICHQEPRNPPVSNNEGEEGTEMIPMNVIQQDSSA

[5] = biological target: human calcitonin receptors (T47D and MCF7-7 breast carcinoma cells) (human) (UniProt P30988); assay: cell-based or functional assay
[6] = biological target: T4, human calcitonin receptors (T47D and MCF7-7 breast carcinoma cells) (human, UniProt P30988 25-474); assay: radioligand Kd used to derive Ki, T47D cell membranes
T4 construct: whole, on cells; also called calcitonin (T47D) receptors
T4 sequence (looked up): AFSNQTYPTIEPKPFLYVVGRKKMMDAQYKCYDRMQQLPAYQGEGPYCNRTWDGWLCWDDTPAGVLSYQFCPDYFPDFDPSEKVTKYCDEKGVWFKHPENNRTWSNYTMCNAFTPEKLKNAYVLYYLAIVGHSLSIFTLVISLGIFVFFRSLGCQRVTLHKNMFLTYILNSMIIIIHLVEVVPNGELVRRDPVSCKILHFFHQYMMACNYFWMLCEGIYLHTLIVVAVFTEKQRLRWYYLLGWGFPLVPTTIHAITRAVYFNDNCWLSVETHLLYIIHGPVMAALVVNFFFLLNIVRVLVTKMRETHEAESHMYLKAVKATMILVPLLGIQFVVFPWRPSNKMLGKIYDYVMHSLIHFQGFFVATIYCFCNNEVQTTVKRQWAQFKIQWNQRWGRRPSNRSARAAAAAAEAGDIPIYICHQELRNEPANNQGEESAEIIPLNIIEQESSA

[7] = biological target: T4, human calcitonin receptors (T47D and …); assay: radioligand competition, [125I]salmon calcitonin on T47D cell membranes
[8] = biological target: T5, human CGRP receptors (SK-N-MC neuroblastoma cells) (human, UniProt Q16602 23-461; O60894 27-148); assay: radioligand competition, SK-N-MC membranes against rat nucleus accumbens membranes
T5 construct: whole, on cells; also called CGRP (SK-N-MC) receptors
T5 sequence (Q16602 23-461, chain 1 of 2): as the sequence (Q16602 23-461) above
T5 sequence (O60894 27-148, chain 2 of 2): as the sequence (O60894 27-148 partner) above

[9] = biological target: T6, amylin receptors of rat nucleus accumbens membranes (rat); assay: radioligand competition, 125I-BH-rat amylin on rat nucleus accumbens membranes
T6 chain 1: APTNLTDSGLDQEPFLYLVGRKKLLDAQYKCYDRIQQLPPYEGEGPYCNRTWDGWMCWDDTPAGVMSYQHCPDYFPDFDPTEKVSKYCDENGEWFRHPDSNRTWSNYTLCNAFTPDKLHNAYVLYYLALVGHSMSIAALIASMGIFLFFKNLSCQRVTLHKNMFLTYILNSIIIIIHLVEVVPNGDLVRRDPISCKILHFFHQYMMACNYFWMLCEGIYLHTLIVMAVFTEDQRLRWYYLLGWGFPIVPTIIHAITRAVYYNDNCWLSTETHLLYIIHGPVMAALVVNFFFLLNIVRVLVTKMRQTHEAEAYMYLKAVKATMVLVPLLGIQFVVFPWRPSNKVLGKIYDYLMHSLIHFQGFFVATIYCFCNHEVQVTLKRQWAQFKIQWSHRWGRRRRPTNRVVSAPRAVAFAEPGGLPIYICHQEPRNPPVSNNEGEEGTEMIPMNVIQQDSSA
T6 chain 2: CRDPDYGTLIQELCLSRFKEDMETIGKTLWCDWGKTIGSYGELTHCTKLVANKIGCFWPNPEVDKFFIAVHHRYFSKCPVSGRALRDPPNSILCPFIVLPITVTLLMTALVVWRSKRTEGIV

[10] = biological target: T4, human calcitonin receptors (T47D and …); assay: cell-based or functional assay
[11] = biological target: T7, rat calcitonin C1a receptor (rat, UniProt P32214 25-516); assay: cell-based or functional assay
T7 sequence (looked up): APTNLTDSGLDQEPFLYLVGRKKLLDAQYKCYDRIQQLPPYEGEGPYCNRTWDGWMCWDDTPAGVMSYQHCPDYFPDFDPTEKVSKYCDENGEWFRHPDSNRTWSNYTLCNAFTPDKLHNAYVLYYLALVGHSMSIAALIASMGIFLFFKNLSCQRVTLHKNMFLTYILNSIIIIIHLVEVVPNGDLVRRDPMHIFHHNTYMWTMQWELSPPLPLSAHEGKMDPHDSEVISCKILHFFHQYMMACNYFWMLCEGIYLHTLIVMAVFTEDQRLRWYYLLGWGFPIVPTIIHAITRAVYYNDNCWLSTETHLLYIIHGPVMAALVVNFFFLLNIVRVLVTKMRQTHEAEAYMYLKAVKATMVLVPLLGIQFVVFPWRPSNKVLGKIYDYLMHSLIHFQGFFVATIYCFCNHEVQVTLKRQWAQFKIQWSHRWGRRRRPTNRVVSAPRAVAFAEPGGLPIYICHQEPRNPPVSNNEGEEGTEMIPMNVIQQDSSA

[12] = biological target: T5, human CGRP receptors (SK-N-MC …); assay: radioligand competition, [125I]human CGRP on SK-N-MC cell membranes
[13] = intravenous preinfusion of test compound, then rat amylin 50 μg bolus + 50 μg/hour, versus saline preinfusion

## Leu-Ser-Thr-Ala-Val-Leu-Gly-Arg-Leu-Ser-Gln-Glu-Leu-His-Arg-Leu-Gln-Thr-Tyr-Pro-Arg-Thr-Asn-Thr-Gly-Ser-Asn-Thr-Tyr [Compound 4]
Calcitonin receptors [1]
  fold less potent than human calcitonin in stimulating adenyl cyclase activity: 7 fold

## 4-methylpentanoyl-Ser-Thr-Ala-Val-Leu-Aib-Lys(For)-Leu-Ser-Gln-Glu-Leu-Aib-Lys(For)-Leu-Gln-Thr-Tyr-Pro-Arg-Thr-Asn-Thr-Gly-Ser-Gly-Thr-Pro [Compound 2]
Calcitonin receptors [1]
  fold less potent than human calcitonin in stimulating adenyl cyclase activity: 3.5 fold
  functional activity at calcitonin receptors: partial agonist activity
  increase in cyclic AMP as percent of the increase produced by human calcitonin: approximately 20%
[2]
  plasma calcium concentration: caused a fall in plasma calcium concentration
  plasma glucose: neither Compound 1 nor Compound 2 increased
  plasma lactate: neither Compound 1 nor Compound 2 increased
[3]; after infusion of test compound, with subsequent amylin infusion
  plasma calcium levels: A fall in plasma calcium levels
[3]; [13]
  increase in plasma glucose after amylin administration: smaller increases
  increase in plasma lactate after amylin administration: smaller increases
[3]; intravenous preinfusion of test compound, then rat amylin infusion
  reversal of the blood pressure lowering effect of amylin (mean arterial pressure): lack of ability of these compounds to reverse the blood pressure lowering effect of amylin
Isolated soleus muscle; amylin 100 nM, test compound 1 μM
  amylin antagonist activity, reversal of the effect of amylin on insulin-stimulated incorporation of glucose into glycogen: reversed
Isolated soleus muscle; test compound 100 nM
  amylin agonist activity, inhibition of insulin-stimulated incorporation of glucose into glycogen: no discernable amylin agonist activity; also recorded: neither Compound 1 (100 nM) nor Compound 2 (100 nM) affected the response to insulin
Gastric emptying in rats
  inhibition of gastric emptying: behaved as potent amylin and calcitonin agonists in inhibition of gastric emptying
Calcitonin receptors [4]
  affinity for calcitonin receptors compared with amylin receptors: greater affinity for calcitonin receptors than for amylin receptors

## Salmon calcitonin
Gastric emptying in rats
  inhibition of gastric emptying: dose-dependently inhibit gastric emptying
  ED50 inhibiting gastric emptying (FIG. 7): 0.12 μg/rat

## LSTAVLGRLSQELHRLQTYPRTNTGSNTY [Compound 6]
CGRP receptors
  IC50: > 10000 nM
Calcitonin receptors [1]
  fold less potent than human calcitonin in stimulating adenyl cyclase activity: 80 fold
Calcitonin receptors [1]; read-out: EC50 cyclic AMP accumulation / adenylyl cyclase activity
  EC50: 34 nM
Amylin receptors
  IC50: 18.6 ± 5.3 nM
Calcitonin receptors [4]
  IC50: 0.56 nM
  affinity for calcitonin receptors compared with amylin receptors: greater affinity for calcitonin receptors than for amylin receptors

## LSTSVLGRLSQELHRLQTYPRTNTGSNTY [Compound 3]
CGRP receptors
  IC50: > 10000 nM
Amylin receptors
  IC50: 37 ± 4.6 nM
Calcitonin receptors [4]
  IC50: 1.45 nM
  affinity for calcitonin receptors compared with amylin receptors: greater affinity for calcitonin receptors than for amylin receptors

## Adrenomedullin: observed to behave as a CGRP agonist but not as an amylin or calcitonin agonist (YRQSMNNFQGLRSFGCRFGTCTVQKLAHQIYQFTDKDKDNVAPRSKISPQGY; ends and bridges not checked; cysteine pairing not given here; UniProt P35318 95-146, looked up)
Gastric emptying in rats
  inhibition of gastric emptying: does not inhibit gastric emptying

## rat amylin: Synthetic rat amylin (Bachem, Torrance, Calif.), positive control
[2]
  plasma calcium concentration: fall
  plasma glucose: increase
  plasma lactate: increase
Gastric emptying in rats; diabetic rats
  dose at which suppression of gastric emptying was complete: 10 µg
Gastric emptying in rats; 5 minutes before gavage
  ED50 for inhibition of gastric emptying: 0.43 µg
Gastric emptying in rats
  ED50 for inhibition of gastric emptying: 0.60 nmol/kg
Gastric emptying in rats; normal HSD rats
  dose at which suppression of gastric emptying was complete: 1 µg

## rat calcitonin
Gastric emptying in rats
  inhibition of gastric emptying: dose-dependently inhibit gastric emptying
  ED50 inhibiting gastric emptying (FIG. 7): 0.41 μg/rat

## human amylin (from UniProt P10997 34-70) (ligand)
[5]
  fold less potent than calcitonin in stimulating adenyl cyclase activity, MCF7-7 cells: 5 fold
  fold less potent than calcitonin in stimulating adenyl cyclase activity, T47D cells: 7 fold

B1: [^125I]salmon calcitonin (ligand, UniProt P01263 83-114, looked up)
peptide: CSNLSTCVLGKLSQELHKLQTY(125I)PRTNTGSGTP
modifications: ends and bridges not checked
notes: mature; also called labeled salmon calcitonin
[6]
  Kd: 0.019 nM

B2: Compound 3 (peptide)
peptide: XLSTSVLGRLSQELHRLQTYPRTNTGSNTY
modifications: N-terminal acetyl (Ac-Leu)
[7]
  IC50: 1.45 nM
[8]
  fold lower affinity than for the amylin receptors: ≥ 300 fold
[9]
  IC50: 37 nM

B3: Compound 6 (peptide)
peptide: XLSTAVLGRLSQELHRLQTYPRTNTGSNTY
modifications: N-terminal acetyl (Ac-Leu)
[10]
  EC50 of adenylyl cyclase stimulation, MCF7-7 cells: 34 nM
  fold lower potency than human calcitonin, MCF7-7 cells: 80 fold
[7]
  IC50: 0.56 nM
[8]
  fold lower affinity than for the amylin receptors: ≥ 300 fold
[9]
  IC50: 18.6 nM

B4: Compound 1 (peptide)
peptide: LSTCVLGRLSQELHRLQTYPRTNTGSNTY
notes: Synthetic 29-residue peptide
[10]
  EC50 of cyclic AMP accumulation, T47D cells: 2.2 nM
[11]
  EC50 of adenyl cyclase activity, cells expressing rat calcitonin C1a receptors: 0.97 nM
[12]
  IC50: 160 nM
[7]
  IC50: 0.22 nM
[8]
  fold lower affinity than for the amylin receptors: ≥ 300 fold
[9]
  IC50: 0.25 nM

B5: Compound 8 (peptide)
peptide: VL[Aib]K(For)LSQEL[Aib]K(For)LQTYPRTNTGSNTY-NH2
[7]
  IC50: 93 nM
